According to patent publication US7253282B2 (Hoffman-La Roche Inc., priority 2004, dated 2007):
pIC50: −log10 of the molar value.

Experiments:
[1] = molecular target: T1, GST-LXRα-LBD (human LXR alpha, aa 164 to 447) (Homo sapiens, UniProt Q13133); experiment: Radioligand binding assay (SPA), LXR alpha; conditions: GST-LXRα-LBD on SPA beads, read-out: LXRalpha Binding IC50
T1 construct: human LXR alpha (aa 164 to 447); made in house; host or cells: E. coli BL21(pLysS)
T1 sequence (Q13133 164-447): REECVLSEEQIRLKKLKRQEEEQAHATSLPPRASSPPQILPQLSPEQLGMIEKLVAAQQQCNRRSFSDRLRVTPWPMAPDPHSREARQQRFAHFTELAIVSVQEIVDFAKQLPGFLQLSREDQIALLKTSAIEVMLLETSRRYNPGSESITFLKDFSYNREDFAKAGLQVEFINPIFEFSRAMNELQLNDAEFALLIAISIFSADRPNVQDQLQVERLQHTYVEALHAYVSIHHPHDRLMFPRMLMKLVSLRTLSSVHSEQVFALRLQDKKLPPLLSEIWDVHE
Text: (§1) Mammalian expression vectors were constructed to express full-length human LXR alpha and LXR beta. Bacterial expression vectors were constructed to produce glutathione-s-transferase (GST) fused to the ligand binding domains (LBD) of human LXR alpha (aa 164 to 447) and human LXR beta (aa 155 to 460). To accomplish this, the portions of the sequences encoding the LBDs were amplified from full-length clones by PCR and then subcloned into the plasmid vectors. Final clones were verified by DNA sequence analysis (Willy et al., Genes Dev. 1995, 9:1033-45; Song et al., Proc Natl Acad Sci USA. 1994, 91:10809-13).
(§2) Induction, expression, and purification of GST-LBD fusion proteins were performed in E. coli strain BL21(pLysS) cells by standard methods (Ref: Current Protocols in Molecular Biology, Wiley Press, edited by Ausubel et al).
(§3) LXR alpha and LXR beta receptor binding were assayed in buffer consisting of 50 mM HEPES, pH 7.4, 10 mM NaCl, 5 mM MgCl2. For each 96-well reaction, 500 ng of GST-LXRα-LBD or 700 ng of GST-LXR beta-LBD fusion proteins were bound to 80 μg or 40 μg SPA beads (Pharmacia Amersham) respectively, in a final volume of 50 μl by shaking. […] All binding assays were performed in 96-well plates and the amount of bound ligand was measured on a Packard TopCount using OptiPlates (Packard). Dose response curves were measured within a range of concentration from 10^−10 M to 10^−4 M.

[2] = molecular target: T2, GST-LXR beta-LBD (human LXR beta, aa 155 to 460) (Homo sapiens, UniProt P55055); experiment: Radioligand binding assay (SPA), LXR beta; conditions: GST-LXR beta-LBD on SPA beads, read-out: LXRbeta Binding IC50
T2 construct: human LXR beta (aa 155 to 460); made in house; host or cells: E. coli BL21(pLysS)
T2 sequence (P55055 155-460): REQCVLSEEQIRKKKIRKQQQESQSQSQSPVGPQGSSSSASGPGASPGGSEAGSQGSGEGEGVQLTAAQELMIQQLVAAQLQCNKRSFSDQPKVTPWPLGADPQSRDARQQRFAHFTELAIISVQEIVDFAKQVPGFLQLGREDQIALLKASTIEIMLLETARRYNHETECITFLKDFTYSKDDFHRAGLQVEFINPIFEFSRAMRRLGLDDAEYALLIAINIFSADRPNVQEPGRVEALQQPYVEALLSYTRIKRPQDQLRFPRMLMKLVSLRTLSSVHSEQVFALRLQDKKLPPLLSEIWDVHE
Text: as §1, §2, §3

Row | pIC50 [1] | pIC50 [2] | SMILES
1 | 5.82 | 5.85 | Cc1nn(C)c(Cl)c1S(=O)(=O)N(CC(F)(F)F)[C@H]1CC[C@H](C(O)(C(F)(F)F)C(F)(F)F)CC1 [Example 17]
2 | 7.70 | 7.15 | O=S(=O)(c1ccccc1)N(CC(F)(F)F)[C@H]1CC[C@H](C(O)(C(F)(F)F)C(F)(F)F)CC1 [Example 1, trans N-(2,2,2-trifluoro-ethyl)-N-[4-(2,2,2-trifluoro-1-hydroxy-1-trifluoromethyl-ethyl)-cyclohexyl]-benzenesulfonamide]
